Values of other authors as cited in US20040166503A1, “Methods for gene expression profiling” (priority 2004, published 2004).

Key:
[1] = tested on: cancer cell lines and tumors; conditions: wide variety of cancer cell lines and tumors
[2] = tested on: M7609 xenografts expressing different levels of GST P1-1; conditions: murine xenografts of M7609; responses positively correlated with GST P1-1 expression
[3] = tested on: bone marrow stem cells and peripheral white blood cell
[4] = tested on: c-Jun N-terminal kinase (JNK); conditions: during TLK286 induced apoptosis
[5] = tested on: extracellular signal-regulated kinase (ERK); conditions: during TLK286 induced apoptosis
p38 kinase = conditions: during TLK286 induced apoptosis
[6] = tested on: resistant HL60 human promyelocytic cell line; conditions: inhibition of glutathione synthesis by BSO

SMILES | cytotoxicity [1] | antitumor activity in vivo [2] | myelosuppressive effect (toxicity) [3] | JNK activation [4] | ERK activation [5] | p38 kinase activation (p38 kinase) | effect on sensitivity of resistant cells to TLK286 [6]
N[C@@H](CCC(=O)N[C@@H](CS(=O)(=O)CCOP(=O)(N(CCCl)CCCl)N(CCCl)CCCl)C(=O)N[C@@H](C(=O)O)c1ccccc1)C(=O)O [TLK286, gamma-glutamyl-alpha-amino-beta(2-ethyl-N,N,N′,N-tetrakis(2-chloroethyl)phosphorodiamidate)-sulfonyl-propionyl-(R)-(−)phenylglycine] | cytotoxic | antitumor activity has also been observed | only mildly toxic | activated | not | not | –
CCCCS(=N)(=O)CCC(N)C(=O)O (stereo not shown) [BSO] | – | – | – | – | – | – | increases the sensitivity
